Measured values from patent publication US20140005412A1, “TREATMENT OF ARTERIAL AGEING BY HMG CoA REDUCTASE INHIBITOR” (FARMICOM PHARMACEUTICAL COMPANY D.O.O., priority 2011, published 2014).

Columns and labels:
[1] = test system: right common carotid artery; assay: Ultrasound measurement of pulse-wave velocity (PWV); format: in vivo, human; conditions: for PWV, after treatment: after 1 month (30 days) treatment; for PWV, improvement: after 1 month vs before treatment
Experimental: (§1) Fifty apparently healthy male individuals (42.6±1.9 years) were recruited in double blind, randomized study. Inclusion criteria were: The control group (n=25) received placebo, while the test group (n=25) received subtherapeutic daily dose of fluvastatin sodium-10 mg daily (the recommended therapeutic daily dose is 40 to 80 mg) during a period of 1 month-30 days. All subjects underwent clinical examination, blood pressure measurements ([…] automated sphygmomanometer) and ultrasound measurement of flow-mediated dilatation of brachial artery (FMD), pulse-wave velocity (PWV) and β-stiffness of carotid artery at inclusion (0th day) and after 1 month (30th day) of the study. Fasting blood samples were taken at the beginning and at the end of the study for laboratory analysis. Blood glucose, electrolytes and cholesterol were obtained using the VITRO 5.1 FS Chemical system (Ortho Clinical Diagnostics, Inc.). The measurements of PWV and β-stiffness were performed on the right common carotid artery. The Aloka ultrasound device was also equipped with special software for automatic determination of the PWV and beta-stiffness through the analysis of pulse waves (Carerj S et al. Normal vascular aging evaluated by a new tool: e-tracking. Eur J Echocardiography 2006; suppl: S 49). All values were expressed as arithmetic mean±SEM and were normally distributed. Differences between values recorded at the beginning (0th day) and at the end of the study (30th day) were determined by one-way analysis of variance (ANOVA). When a significant interaction was present, the Bonferroni post-test was performed. […] All statistical analyses were performed using Graph Pad Prism 5.0 software.

arterial wall [2] = assay: "Biological" arterial age according to age-related normogram; format: in vivo, human
Text: It is important to emphasize that there is a similarity between the terms morphological or structural which are used to describe the same characteristics by different authors but basically disclose the same characteristics of arterial wall. All three above mentioned methods FMD, PWV, and β-stiffness are standard in the art and generally widely accepted methods for estimation of functional or morphological characteristics of arteries. When administering the pharmaceutical composition according to the present invention the significant and unexpected improvement in all above mentioned characteristics are observed. Furthermore, by using age-related normogram obtained on large sample of apparently healthy subjects—who have a low cardiovascular risk as defined above—the estimation of “biological” arterial age can be determined. […] By using age-related normogram (according to the methods described in Jurasic M J et al. Beta stiffness—setting age standards. Acta Clin Croat 2009; 48:253-8; and Carerj S. Normal vascular ageing evaluated by a new tool: e-tracking. Eur J Echocardiography 2006; suppl 1:S49. Carerj S et al. Eur J Echocardiography 2006; suppl: S 49) the “biological” arterial age in participants according to Example 1 after 1 month of treatment and according to Example 2 after 5, 7 and 8 months after discontinuation of treatment was calculated (FIG. 3).

[3] = blood plasma; cited from earlier work
brachial artery = assay: Ultrasound measurement of flow-mediated dilatation of brachial artery (FMD), endothelial function; format: in vivo, human; conditions: for FMD, after treatment: after 1 month (30 days) treatment; for FMD, improvement: after 1 month vs before treatment
Experimental: Fifty apparently healthy male individuals (42.6±1.9 years) were recruited in double blind, randomized study. Inclusion criteria were: The control group (n=25) received placebo, while the test group (n=25) received subtherapeutic daily dose of fluvastatin sodium-10 mg daily (the recommended therapeutic daily dose is 40 to 80 mg) during a period of 1 month-30 days. All subjects underwent clinical examination, blood pressure measurements ([…] automated sphygmomanometer) and ultrasound measurement of flow-mediated dilatation of brachial artery (FMD), pulse-wave velocity (PWV) and β-stiffness of carotid artery at inclusion (0th day) and after 1 month (30th day) of the study. Fasting blood samples were taken at the beginning and at the end of the study for laboratory analysis. Blood glucose, electrolytes and cholesterol were obtained using the VITRO 5.1 FS Chemical system (Ortho Clinical Diagnostics, Inc.). Ultrasound measurements were performed by a single examiner using Aloka ProSound Alpha 10 echo-machine. Endothelial function was measured by means of FMD on the brachial artery according to FMD guidelines (Corretti M C et al. Guidelines for the ultrasound assessment of endothelial-dependent flow-mediated vasodilation of the brachial artery: a report of the International Brachial Artery Reactivity Task Force. J Am Coll Cardiol 2002; 39: 257-65). The echo-machine continuously tracked and recorded the brachial artery diameter. Following the measurement of baseline brachial artery diameter (1 min), the forearm blood pressure cuff was inflated to 50 mmHg above the systolic pressure for 4 min. After the occlusion period, the cuff was rapidly deflated, inducing reactive hyperemia, and the brachial artery diameter was recorded for 3 min. At the end of the measurement, the machine automatically provided the values of FMD. All values were expressed as arithmetic mean±SEM and were normally distributed. Differences between values recorded at the beginning (0th day) and at the end of the study (30th day) were determined by one-way analysis of variance (ANOVA). When a significant interaction was present, the Bonferroni post-test was performed. […] All statistical analyses were performed using Graph Pad Prism 5.0 software.

[4] = Fasting blood laboratory analysis (cholesterol, triglycerides, glucose); format: in vivo, human; conditions: Example 1, n=25, 10 mg daily, mean ± SEM
Text: All subjects underwent clinical examination, blood pressure measurements ([…] automated sphygmomanometer) and ultrasound measurement of flow-mediated dilatation of brachial artery (FMD), pulse-wave velocity (PWV) and β-stiffness of carotid artery at inclusion (0th day) and after 1 month (30th day) of the study. Fasting blood samples were taken at the beginning and at the end of the study for laboratory analysis. Blood glucose, electrolytes and cholesterol were obtained using the VITRO 5.1 FS Chemical system (Ortho Clinical Diagnostics, Inc.).

[5] = test system: right common carotid artery; assay: Ultrasound measurement of β-stiffness of carotid artery; format: in vivo, human; conditions: for β-stiffness, after treatment: after 1 month (30 days) treatment; for β-stiffness, improvement: after 1 month vs before treatment
Experimental: as §1

arterial wall [6] = assay: "Biological" arterial age according to age-related normogram; format: in vivo, human; remark: listed apart in the source
[7] = Example 1 study, 10 mg, after 30 days of treatment
[8] = Example 2, rest period 5 months
[9] = Example 2, rest period 7 months
[10] = Example 2, rest period 8 months
[11] = Example 4, 10 mg daily, after 1 month treatment period
[12] = Example 5, rest period 3 months
[13] = Example 5, rest period 5 months
[14] = Example 5, rest period 8 months
[15] = Example 6, ten participants, 10 mg daily, 1. intervention, before
[16] = Example 6, 1. intervention, after 1 month of treatment
[17] = Example 6, 2. intervention (repetition), after 1 month of treatment
[18] = Example 6, 2. intervention (repetition), before, after rest period of 12 months

Structure (SMILES): CC(C)n1c(/C=C/C(O)CC(O)CC(=O)O)c(-c2ccc(F)cc2)c2ccccc21 (stereo not drawn) [Fluvastatin sodium, fluvastatin sodium]
- PWV, after treatment ([1]; Example 1, 10 mg daily): 5.41 m/s
- PWV, improvement ([1]; Example 1, 10 mg daily): −6.4%
- PWV, before treatment ([1]; Example 1, 10 mg daily): 5.76 m/s
- PWV decreased by [1, 7]: 6.4%
- PWV, residual improvement in % of effect achieved after 1 month of treatment [1, 8]: 29.7%
- PWV, residual improvement in % of effect achieved after 1 month of treatment [1, 9]: 10%
- PWV, residual improvement in % of effect achieved after 1 month of treatment [1, 10]: 1.9%
- PWV decreased by [1, 11]: 10.4%
- PWV, after treatment ([1]; Example 4, 10 mg daily): 5.00 m/s
- PWV, improvement ([1]; Example 4, 10 mg daily): −10.4%
- PWV, before treatment ([1]; Example 4, 10 mg daily): 5.52 m/s
- PWV, residual improvement in % of effect achieved after 1 month of treatment [1, 12]: 55.2%
- PWV, residual improvement in % of effect achieved after 1 month of treatment [1, 13]: 30.1%
- PWV, residual improvement in % of effect achieved after 1 month of treatment [1, 14]: 5.2%
- PWV [1, 15]: 5.5 ± 0.4 m/s
- PWV [1, 16]: 5.1 ± 0.4 m/s
- PWV [1, 17]: 5.3 ± 0.3 m/s
- PWV [1, 18]: 5.6 ± 0.3 m/s
- Arterial age according to age normogram, after treatment (arterial wall [2]; Example 1, 10 mg daily, after 1 month treatment): 38.2 years
- Arterial age according to age normogram, improvement (arterial wall [2]; Example 1, 10 mg daily, after 1 month vs before treatment): −6.8 years
- Arterial age according to age normogram, before treatment (arterial wall [2]; Example 1, 10 mg daily, before treatment): 45.0 years
- Arterial age according to age-related normogram (arterial wall [2]; [8]): 42.3 years
- Arterial age according to age-related normogram, difference (in brackets) to before treatment (arterial wall [2]; [8]): −2.7 years
- Arterial age according to age-related normogram, difference (in brackets) to before treatment (arterial wall [2]; [10]): −0.5 years
- half-life time (t1/2) [3]: about 2.5 hours
- FMD, after treatment (brachial artery; Example 1, 10 mg daily): 4.39%
- FMD, improvement (brachial artery; Example 1, 10 mg daily): +91.0%
- FMD, before treatment (brachial artery; Example 1, 10 mg daily): 2.31%
- FMD increased by (brachial artery; Example 1 study (50 subjects, double-blind), 10 mg, after 30 days of treatment): 91.0%
- FMD, residual improvement in % of effect achieved after 1 month of treatment (brachial artery; Example 2 (participants of Example 1), rest period 5 months): 53.3%
- FMD, residual improvement in % of effect achieved after 1 month of treatment (brachial artery; [9]): 33%
- FMD, residual improvement in % of effect achieved after 1 month of treatment (brachial artery; [10]): 10.5%
- FMD increased by (brachial artery; [11]): 120.8%
- FMD, after treatment (brachial artery; Example 4, 10 mg daily): 5.30%
- FMD, improvement (brachial artery; Example 4, 10 mg daily): +120.8%
- FMD, before treatment (brachial artery; Example 4, healthy males n=15, 10 mg daily): 2.40%
- FMD, residual improvement in % of effect achieved after 1 month of treatment (brachial artery; Example 5 (participants of Example 4), rest period 3 months): 73.4%
- FMD, residual improvement in % of effect achieved after 1 month of treatment (brachial artery; [13]): 55.2%
- FMD, residual improvement in % of effect achieved after 1 month of treatment (brachial artery; [14]): 16.3%
- FMD (brachial artery; [15]): 3.5 ± 0.6%
- FMD (brachial artery; [16]): 5.3 ± 0.6%
- FMD (brachial artery; [17]): 5.7 ± 0.2%
- FMD (brachial artery; [18]): 3.9 ± 0.8%
- HDL cholesterol ([4]; 1st day (baseline)): 1.2 ± 0.1 mmol/L
- LDL cholesterol ([4]; 1st day (baseline)): 3.7 ± 0.2 mmol/L
- Total cholesterol ([4]; 1st day (baseline)): 5.7 ± 0.2 mmol/L
- Triglycerides ([4]; 1st day (baseline)): 1.6 ± 0.2 mmol/L
- HDL cholesterol ([4]; 30th day): 1.2 ± 0.1 mmol/L
- LDL cholesterol ([4]; 30th day): 3.6 ± 0.2 mmol/L
- Total cholesterol ([4]; 30th day): 5.4 ± 0.2 mmol/L
- Triglycerides ([4]; 30th day): 1.6 ± 0.3 mmol/L
- β-stiffness, after treatment ([5]; Example 1, 10 mg daily): 6.40 U
- β-stiffness, improvement ([5]; Example 1, 10 mg daily): −10.9%
- β-stiffness, before treatment ([5]; Example 1, 10 mg daily): 7.10 U
- β-stiffness decreased by [5, 7]: 10.9%
- β-stiffness, residual improvement in % of effect achieved after 1 month of treatment [5, 8]: 30.4%
- β-stiffness, residual improvement in % of effect achieved after 1 month of treatment [5, 9]: 9%
- β-stiffness, residual improvement in % of effect achieved after 1 month of treatment [5, 10]: 0.9%
- β-stiffness of the carotid artery decreased by [5, 11]: 12.7%
- β-stiffness, after treatment ([5]; Example 4, 10 mg daily): 6.10 U
- β-stiffness, improvement ([5]; Example 4, 10 mg daily): −12.7%
- β-stiffness, before treatment ([5]; Example 4, 10 mg daily): 6.88 U
- β-stiffness, residual improvement in % of effect achieved after 1 month of treatment [5, 12]: 50.1%
- β-stiffness, residual improvement in % of effect achieved after 1 month of treatment [5, 13]: 33.6%
- β-stiffness, residual improvement in % of effect achieved after 1 month of treatment [5, 14]: 3.1%
- β-stiffness [5, 15]: 6.4 ± 0.8 U
- β-stiffness [5, 16]: 5.7 ± 0.7 U
- β-stiffness [5, 17]: 6.0 ± 0.6 U
- β-stiffness [5, 18]: 6.6 ± 0.6 U
- Arterial age according to age-related normogram (arterial wall [6]; [9]): 43.6 years
- Arterial age according to age-related normogram, difference (in brackets) to before treatment (arterial wall [6]; [9]): −1.4 years
- Arterial age according to age-related normogram (arterial wall [6]; [10]): 44.5 years
- Arterial age according to age-related normogram, after treatment (arterial wall [6]; Example 4, 10 mg daily, after 1 month treatment): 32.0 years
- Arterial age according to age-related normogram, improvement (arterial wall [6]; Example 4, 10 mg daily, after 1 month vs before treatment): −9.0 years
- Arterial age according to age-related normogram, before treatment (arterial wall [6]; Example 4, 10 mg daily, before treatment): 41.0 years
- Arterial age according to age-related normogram (arterial wall [6]; [12]): 34.2 years
- Arterial age according to age-related normogram, difference (in brackets) to before treatment (arterial wall [6]; [12]): −6.8 years
- Arterial age according to age-related normogram (arterial wall [6]; [13]): 36.4 years
- Arterial age according to age-related normogram, difference (in brackets) to before treatment (arterial wall [6]; [13]): −4.6 years
- Arterial age according to age-related normogram (arterial wall [6]; [14]): 40.0 years
- Arterial age according to age-related normogram, difference (in brackets) to before treatment (arterial wall [6]; [14]): −1.0 years
